Results on one molecule are retold here after publication PMC4393269, “Carvacrol Codrugs: A New Approach in the Antimicrobial Plan” (PLoS ONE, 2015).

Read-outs that look alike come from different tables or passages of the source.

The nature of data set [1]: Drug stability in simulated gastric fluid with pepsin. The data set is classed as in vitro ADME. Particulars: 37°C, read-out: t½ (converted). As for the experimental part:
(§1) The HPLC system consisted of a Waters 600 HPLC pump (Waters Corporation, Milford, MA, USA), equipped with a Waters 2996 photodiode array detector. The column was a Kinetex RP-C8 column (3.0 x 150 mm, 5 μm). The mobile phase consisted of 0.1% TFA in acetonitrile/0.1% TFA in 95% H2O and 5% acetonitrile 50:50, under isocratic conditions at a flow rate of 1 mL/min. The UV detector was set at a length of 220 nm.
(§2) To assess enzymatic stability, hydrochloric buffer with pepsin (10 or 40 mg/mL) and phosphate buffer with pancreatin (10 or 40 mg/mL) were used. Buffer solution (250 μL) was preincubated at 37°C and 50 μL of drug stock solution (50 μM in ethanol and FASSIF 1:9) were added and shaken at 37°C and 650 rpm. Samples of 100 μL were withdrawn at various times and 100 µL of ice-cold acetonitrile containing 0.5 v/v% formic acid were added to stop enzymatic activity. Samples were vortexed and centrifuged at 2°C and 10000 rpm for 10 min. The drug content in the supernatant was analyzed by HPLC.

Data set [2] concerns pepsin. The data set is described as above. The data set is classed as in vitro ADME. Conditions: for kobs: 37°C. As for the experimental part: as §1, §2

With `C=CCSC[C@H](NC(C)=O)C(=O)Oc1cc(C(C)C)ccc1C` [codrug 4, N-Ac-Cys(Allyl)-CAR], the half-life at 8.3 µM is > 74 h in data set [1] (simulated gastric fluid with pepsin 10 mg/mL, pH 1.3, SGF pH 1.3, pepsin 10 mg/mL) and 5.79 h in data set [1] (simulated gastric fluid with pepsin 40 mg/mL, pH 1.3, SGF pH 1.3, pepsin 40 mg/mL). Further, the kobs is given as 0.009 (± 0.001) h^-1 in data set [2] (SGF pH 1.3, pepsin 10 mg/mL) and 0.119 (± 0.003) h^-1 in data set [2] (SGF pH 1.3, pepsin 40 mg/mL). Also, the “stability at pH 1.3 respect to pH 7.4” value in data set [2] (in the presence of pepsin and pancreatin (10 mg/mL)) is on record as 13 fold.
